Structures can show the parent of a compound that is named as a salt.

The target in assay [1] is T1, human dopamine D3 receptors (Homo sapiens, UniProt P35462).
T1 construct: expressed in transfected cells; host or cells: HEK-293
The experiment in a line: Dopamine D3 receptor binding, [125I]-iodosulpride displacement. As to conditions: for Ki: membranes of HEK-293 cells, 0.1 nM [125I]-iodosulpride, 25° C., 60 minutes; for Ki(D2)/Ki(D3): selectivity ratio of receptor binding constants. How it is done: (§1) The substance to be tested was either dissolved in methanol/Chremophor® (BASF-AG) or in dimethyl sulfoxide and then diluted with water to the desired concentration.
(§2) Each assay mixture was run in triplicate.
The incubation buffer contained 50 mM tris, 120 mM NaCl, 5 mM KCl, 2 mM CaCl2, 2 mM MgCl2 and 0.1% bovine serum albumin, 10 μM quinolone and 0.1% ascorbic acid (prepared fresh daily). The buffer was adjusted to pH 7.4 with HCl.
(§3) After having been incubated at 25° C. for 60 minutes, the assay mixtures were filtered through a Whatman GF/B glass fiber filter under vacuum using a cell collecting device. The filters were transferred to scintillation viols using a filter transfer system. After 4 ml of Ultima Gold® (Packard) have been added, the samples were shaken for one hour and the radioactivity was then counted in a Beta-Counter (Packard, Tricarb 2000 or 2200CA). The cpm values were converted into dpm using a standard quench series and the program belonging to the instrument.
(§4) The inhibition curves were analyzed by means of iterative nonlinear regression analysis using the Statistical Analysis System (SAS) which is similar to the “LIGAND” program described by Munson and Rodbard.

Assay [2] has as its target T2, human dopamine D2L receptors (long isoform) (Homo sapiens, UniProt P14416).
T2 construct: expressed in transfected cells; host or cells: HEK-293
Description: Dopamine D2L receptor binding, [125I] iodospiperone displacement. The note with it: membranes of HEK-293 cells, 0.01 nM [125I] iodospiperone, 25° C., 60 minutes; read-out: Ki(D2). The procedure:
as §1, §2
The incubation buffer contained 50 mM tris, 120 mM NaCl, 5 mM KCl, 2 mM CaCl2, 2 mM MgCl2 and 0.1% bovine serum albumin. The buffer was adjusted to pH 7.4 with HCl.
as §3, §4

T1 sequence (P35462 whole entry): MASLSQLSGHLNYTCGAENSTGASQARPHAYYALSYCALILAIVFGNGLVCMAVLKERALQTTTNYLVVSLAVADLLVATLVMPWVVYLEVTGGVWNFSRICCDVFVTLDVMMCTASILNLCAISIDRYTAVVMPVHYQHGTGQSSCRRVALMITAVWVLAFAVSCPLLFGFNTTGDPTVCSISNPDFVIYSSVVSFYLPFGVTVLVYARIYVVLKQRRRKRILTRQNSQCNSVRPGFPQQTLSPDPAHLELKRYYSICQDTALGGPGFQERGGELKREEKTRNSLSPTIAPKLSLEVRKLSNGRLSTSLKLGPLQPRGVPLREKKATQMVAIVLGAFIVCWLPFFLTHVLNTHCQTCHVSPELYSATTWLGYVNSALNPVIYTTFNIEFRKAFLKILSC
T2 sequence (P14416 whole entry, canonical isoform): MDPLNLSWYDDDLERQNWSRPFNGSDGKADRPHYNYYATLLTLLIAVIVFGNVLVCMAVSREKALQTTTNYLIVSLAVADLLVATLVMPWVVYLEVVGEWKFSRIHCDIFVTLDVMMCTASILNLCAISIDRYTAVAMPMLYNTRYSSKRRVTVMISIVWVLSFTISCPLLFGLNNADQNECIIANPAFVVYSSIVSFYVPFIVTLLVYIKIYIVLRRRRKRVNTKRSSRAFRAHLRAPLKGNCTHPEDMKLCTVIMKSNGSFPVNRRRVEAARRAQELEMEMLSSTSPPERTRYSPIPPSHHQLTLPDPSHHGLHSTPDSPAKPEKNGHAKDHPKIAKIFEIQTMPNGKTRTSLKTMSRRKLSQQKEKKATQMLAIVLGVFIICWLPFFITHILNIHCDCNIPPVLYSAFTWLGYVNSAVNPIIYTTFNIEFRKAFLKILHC

On to `Cn1c(SCCCN2CCN(c3cc(C(C)(C)C)nc(C4CC4)n3)CC2)nnc1-c1cnccn1` [Example 57, 2-cyclopropyl-4-{4-[3-(5-pyrazin-4-methyl-4H-[1,2,4]triazol-3-ylsulfanyl)-propyl]-piperazin-1-yl}6-tert-butyl-pyrimidine hydrochloride], for which, in assay [1], the Ki came to 0.00547 µM and the “Ki(D2)/Ki(D3)” value was 296. For the same molecule, the Ki in assay [2] worked out at 1.61 µM.

Take `C[C@@H](COc1ncccn1)CN1CCN(c2cc(C3CCC3)nc(C(C)(C)C)n2)CC1.Cl` [Example 28, (R)-2-tert-Butyl-4-cyclobutyl-6-{4-[2-methyl-3-(pyrimidin-2-yloxy)-propyl]-piperazin-1-yl}-pyrimidine hydrochloride]: in assay [1], the Ki stood at 0.0038 µM and the “Ki(D2)/Ki(D3)” value worked out at 78. The Ki in assay [2] was found to be 0.296 µM.

For `Cn1cnnc1SCCCN1CCN(c2cc(C(F)(F)F)nc(C3(C)CC3)n2)CC1` [Example 65, 2-(1-Methyl-cyclopropyl)-4-{4-[3-(4-methyl-4H-[1,2,4]triazol-3-ylsulfanyl)-propyl]-piperazin-1-yl}-6-trifluoromethyl-pyrimidine], the figures for the Ki in assay [1] and in assay [2] were 0.0221 µM and 0.797 µM, respectively. Besides, the “Ki(D2)/Ki(D3)” value in assay [1] was 36.

For `Cn1cnnc1SCCCN1CCN(c2cc(C3(C)CC3)nc(C(C)(C)C)n2)CC1` [Example 53, 2-tert-butyl-4-{4-[3-(4-methyl-4H-[1,2,4]triazol-3-ylsulfanyl)-propyl]-piperazin-1-yl}-6-(1-methyl)cyclopropyl-pyrimidine], in assay [1], the Ki came out at 0.0012 µM and the “Ki(D2)/Ki(D3)” value is on record as 50. Moreover, in assay [2], the Ki worked out at 0.058 µM.

For the molecule `Cl.Cn1nnnc1SCCCN1CCN(c2cc(C3CC3)nc(C(C)(C)C)n2)CC1` [Example 35, 2-tert-Butyl-4-cyclopropyl-6-{4-[3-(1-methyl-1H-tetrazol-5-ylsulfanyl)-propyl]-piperazin-1-yl}-pyrimidine hydrochloride], in assay [1], the Ki turned out to be 0.0038 µM and the “Ki(D2)/Ki(D3)” value turned out to be 154. Further, in assay [2], the Ki was 0.587 µM.

On to `CC(C)(C)c1nc(C2CCC2)cc(N2CCN(CCCOc3ccnc(O)n3)CC2)n1` [Example 24, 4-{3-[4-(2-tert-Butyl-6-cyclobutyl-pyrimidin-4-yl)-piperazin-1-yl]-propoxy}-pyrimidin-2-ol], for which, in assay [1], the affinity corresponds to a Ki of 0.0012 µM and the “Ki(D2)/Ki(D3)” value came out at 93. The Ki in assay [2] was found to be 0.112 µM.

Consider `C[C@@H](COc1nccc(O)n1)CN1CCN(c2cc(C3CCC3)nc(C(C)(C)C)n2)CC1` [Example 52], for which the figures for the Ki in assay [1] and in assay [2] were 0.0112 µM and 0.926 µM, respectively. The “Ki(D2)/Ki(D3)” value in assay [1] is reported as 82.

Regarding `Cl.Cn1c(SCCCN2CCN(c3cc(C4CC4)nc(C(C)(C)C)n3)CC2)nnc1C(F)(F)F` [Example 47, 2-tert-Butyl-4-{4-[3-(4-methyl-5-trifluoromethyl-4H-[1,2,4]triazol-3-ylsulfanyl)-propyl]-piperazin-1-yl}-6-cyclopropyl-pyrimidine hydrochloride], in assay [1], the Ki was 0.0019 µM and the “Ki(D2)/Ki(D3)” value was 253. Further, the Ki in assay [2] is 0.484 µM.

Regarding `CC(C)(C)c1nc(C2CCC2)cc(N2CCN(CCCCNC(=O)c3ccc(F)cc3)CC2)n1.Cl` [Example 10, N-{4-[4-(2-tert-Butyl-6-cyclobutyl-pyrimidin-4-yl)-piperazin-1-yl]-butyl}-4-fluoro-benzamide hydrochloride], in assay [1], the affinity, expressed as Ki, was 0.0005 µM and the “Ki(D2)/Ki(D3)” value is 163. For the same molecule, the inhibition constant Ki in assay [2] was found to be 0.087 µM.

As for `Cn1c(SCCCN2CCN(c3cc(C4CCC4)nc(C(C)(C)C)n3)CC2)nnc1C(F)(F)F` [Example 42, 2-tert-Butyl-4-{4-[3-(4-methyl-5-trifluoromethyl-4H-[1,2,4]triazol-3-ylsulfanyl)-propyl]-piperazin-1-yl}-6-cyclobutyl-pyrimidine], the Ki in assay [1] worked out at 0.002 µM; in assay [2] it was 0.405 µM. The “Ki(D2)/Ki(D3)” value in assay [1] is listed as 203.

By Ki is commonly meant a measure of affinity in units of concentration, obtained from inhibition or displacement.

The values above are taken from patent US8202868B2, “4-piperazinyl-pyrimidine compounds suitable for treating disorders that respond to modulation of the dopamine D3 receptor” (Abbott GmbH & Co. KG, priority 2004, dated 2012).
